According to patent publication US10336702B2, “Pharmaceutically active compounds” (BERGENBIO ASA, priority 2015, dated 2019):

Tests used:
[1] = target: T1, Akt3 (Homo sapiens, UniProt Q9Y243); assay: Akt activation assay (PDK1-mediated activation, LANCE Ultra crosstide TR-FRET), Akt3; assay type: biochemical; details: read-out: Biological Assay 1 IC50 (nM) Akt3
T1 construct: unspecified tag, removed (detagged) (cleaved yes); purchased SignalChem and Proteros (Akt3); Merck Millipore (PDK1) 14-452 (PDK1); none given for Akt3
In short: (§1)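 Two-step cascade format: Akt1, Akt2 or Akt3 phosphorylates Ulight-crosstide (100 nM) only after activation by 5 nM PDK1 in presence of PtdIns(3,4,5)P3 vesicles and 100 μM ATP. Product quantified by Eu-antibody TR-FRET after 30 min reaction.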

[2] = target: T2, Akt2 (Homo sapiens, UniProt P31751); assay: Akt activation assay (PDK1-mediated activation, LANCE Ultra crosstide TR-FRET), Akt2; assay type: biochemical; details: read-out: Biological Assay 1 IC50 (nM) Akt2
T2 construct: unspecified tag, removed (detagged) (cleaved yes); purchased SignalChem and Proteros (Akt2); Merck Millipore (PDK1) 14-452 (PDK1); none given for Akt2
In short: as §1

[3] = target: T3, p-Akt2 in WM115 cells (Homo sapiens, UniProt P31751); assay: Phospho-Akt cellular SureFire assay, p-Akt2 in WM115 cells; assay type: cell-based; details: insulin stimulated, read-out: Biological Assay 2 IC50 (nM) Akt2 WM115
T3 construct: SureFire assays to detect cellular p-Akt1, p-Akt2 and p-Akt3 levels in WM115 cells (Akt2/3) and LNCaP cells (Akt1); endogenous in cells; host or cells: WM115 (ECACC 91061232), insulin-stimulated
In short: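 Readout is a bead-proximity SureFire assay pairing a pThr308 Akt antibody with a total Akt2 antibody, lysate and beads incubated 2 h plus 2 h at room temperature in the dark. Before lysis, serum-starved WM115 cells received 100 nM insulin (10 min), then test compound (15 min, 0.3% DMSO); IC50 by 4-parameter equation.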

[4] = target: T4, Akt1 (Homo sapiens, UniProt P31749); assay: Akt activation assay (PDK1-mediated activation, LANCE Ultra crosstide TR-FRET), Akt1; assay type: biochemical; details: read-out: Biological Assay 1 IC50 (nM) Akt1
T4 construct: unspecified tag, removed (detagged) (cleaved yes); purchased SignalChem and Proteros (Akt1); Merck Millipore (PDK1) 14-452 (PDK1); none given for Akt1
In short: as §1

[5] = target: T5, p-Akt3 in WM115 cells (Homo sapiens, UniProt Q9Y243); assay: Phospho-Akt cellular SureFire assay, p-Akt3 in WM115 cells; assay type: cell-based; details: insulin stimulated, read-out: Biological Assay 2 IC50 (nM) Akt3 WM115
T5 construct: SureFire assays to detect cellular p-Akt1, p-Akt2 and p-Akt3 levels in WM115 cells (Akt2/3) and LNCaP cells (Akt1); endogenous in cells; host or cells: WM115 (ECACC 91061232), insulin-stimulated
In short: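 pThr308-Akt3 in lysates was quantified by bead-proximity SureFire detection, pairing a phospho-specific antibody with a total Akt3 antibody. Before lysis, WM115 cells in 0.1% FBS medium were treated for 15 min at 37 °C with compound (final DMSO 0.3%), following a 10 min stimulation with 100 nM insulin. IC50 was obtained by 4-parameter fitting.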

[6] = target: T6, p-Akt1 in LNCaP cells (Homo sapiens, UniProt P31749); assay: Phospho-Akt cellular SureFire assay, p-Akt1 in LNCaP cells; assay type: cell-based; details: read-out: Biological Assay 2 IC50 (nM) Akt1 LNCaP
T6 construct: SureFire assays to detect cellular p-Akt1, p-Akt2 and p-Akt3 levels in WM115 cells (Akt2/3) and LNCaP cells (Akt1); endogenous in cells; host or cells: LNCaP (ECACC 89110211)
In short: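 Phospho-Thr308 Akt1 detected by AlphaScreen SureFire proximity beads in LNCaP lysates after 15 min compound treatment at 37 °C in 0.1% FBS medium, unstimulated, 0.3% DMSO. Cells plated at 5×10^4/well overnight; IC50 from a 4-parameter equation.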

T1 sequence (Q9Y243 whole entry): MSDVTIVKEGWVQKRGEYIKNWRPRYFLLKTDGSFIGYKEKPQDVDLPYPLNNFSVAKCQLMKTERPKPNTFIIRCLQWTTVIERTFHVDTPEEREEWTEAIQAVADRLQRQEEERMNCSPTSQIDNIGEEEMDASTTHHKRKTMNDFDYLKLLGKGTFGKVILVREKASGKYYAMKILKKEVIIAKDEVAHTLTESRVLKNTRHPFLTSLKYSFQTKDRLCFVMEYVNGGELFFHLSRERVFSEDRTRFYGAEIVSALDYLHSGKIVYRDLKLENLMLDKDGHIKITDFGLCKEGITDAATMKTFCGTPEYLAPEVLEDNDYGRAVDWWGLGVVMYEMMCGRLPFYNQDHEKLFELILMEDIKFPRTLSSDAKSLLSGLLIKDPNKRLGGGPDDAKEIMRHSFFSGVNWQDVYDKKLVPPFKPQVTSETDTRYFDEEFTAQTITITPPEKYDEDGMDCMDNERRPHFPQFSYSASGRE
T5 sequence (Q9Y243 whole entry): as above
T3 sequence (P31751 whole entry): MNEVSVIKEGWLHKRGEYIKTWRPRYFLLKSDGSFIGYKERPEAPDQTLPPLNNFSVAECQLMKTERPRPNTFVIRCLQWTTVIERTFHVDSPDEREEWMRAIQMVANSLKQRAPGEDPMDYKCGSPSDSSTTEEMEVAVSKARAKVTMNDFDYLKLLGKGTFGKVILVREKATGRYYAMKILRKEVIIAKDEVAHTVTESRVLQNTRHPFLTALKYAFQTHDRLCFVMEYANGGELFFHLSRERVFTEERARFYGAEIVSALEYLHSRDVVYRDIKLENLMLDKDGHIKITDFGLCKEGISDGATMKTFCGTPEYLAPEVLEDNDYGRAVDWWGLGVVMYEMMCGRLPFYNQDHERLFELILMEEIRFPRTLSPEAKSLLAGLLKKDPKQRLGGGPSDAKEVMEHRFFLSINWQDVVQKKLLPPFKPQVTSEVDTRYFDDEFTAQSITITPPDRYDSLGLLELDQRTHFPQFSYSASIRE
T2 sequence (P31751 whole entry): as above
T4 sequence (P31749 whole entry): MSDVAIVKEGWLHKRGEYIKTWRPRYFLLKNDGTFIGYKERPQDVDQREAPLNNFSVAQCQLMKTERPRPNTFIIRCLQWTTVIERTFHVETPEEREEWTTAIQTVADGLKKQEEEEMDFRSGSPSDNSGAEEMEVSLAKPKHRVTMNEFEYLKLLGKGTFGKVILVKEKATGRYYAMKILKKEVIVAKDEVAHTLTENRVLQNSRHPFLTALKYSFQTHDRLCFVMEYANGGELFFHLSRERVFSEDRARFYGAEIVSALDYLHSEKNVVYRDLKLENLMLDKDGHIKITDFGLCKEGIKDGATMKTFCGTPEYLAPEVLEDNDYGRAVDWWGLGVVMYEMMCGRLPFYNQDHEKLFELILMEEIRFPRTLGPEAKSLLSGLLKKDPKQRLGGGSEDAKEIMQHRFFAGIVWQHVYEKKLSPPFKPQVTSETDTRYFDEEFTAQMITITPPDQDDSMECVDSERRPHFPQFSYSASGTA
T6 sequence (P31749 whole entry): as above

| Structure (SMILES) | IC50 [1] [nM] | IC50 [2] [nM] | IC50 [3] [nM] | IC50 [4] [nM] | IC50 [5] [nM] | IC50 [6] [nM] |
| --- | --- | --- | --- | --- | --- | --- |
| CCC(=O)N(C)[C@H]1CC[C@H](CC(=O)Nc2cc(-c3ccsc3)c(-c3ccc(C(C)(C)N)cc3)nn2)CC1 [Example 88, N-(trans-4-(2-((6-(4-(2-aminopropan-2-yl)phenyl)-5-(thiophen-3-yl)pyridazin-3-yl)amino)-2-oxoethyl)cyclohexyl)-N-methylpropionamide] | 64 | 8600 | 16000 | > 30000 | 240 | > 30000 |
| CC(=O)N(C)[C@H]1CC[C@H](CC(=O)Nc2cc(-c3ccsc3)c(-c3ccc(C4(N)CC4)c(F)c3)nn2)CC1 [Example 92, N-(6-(4-(1-aminocyclopropyl)-3-fluorophenyl)-5-(thiophen-3-yl)pyridazin-3-yl)-2-(trans-4-(N-methylacetamido)cyclohexyl)acetamide] | 170 | 14000 | > 30000 | > 30000 | 230 | > 30000 |
| CC(=O)N(C)[C@H]1CC[C@H](CC(=O)Nc2cc(-c3ccsc3)c(-c3ccc([C@]4(N)C[C@](C)(O)C4)cc3)cn2)CC1 [Example 93, N-(5-(4-(trans-1-amino-3-hydroxy-3-methylcyclobutyl)phenyl)-4-(thiophen-3-yl)pyridin-2-yl)-2-(trans-4-(N-methylacetamido)cyclohexyl)acetamide] | 10 | 320 | 520 | 3900 | 9 | 2200 |
| CC(=O)N(C(C)C)[C@H]1CC[C@H](CC(=O)Nc2cc(-c3ccccc3)c(-c3ccc([C@]4(N)C[C@](C)(O)C4)cc3)nn2)CC1 [Example 100, N-(6-(4-(trans-1-amino-3-hydroxy-3-methylcyclobutyl)phenyl)-5-phenylpyridazin-3-yl)-2-(trans-4-(N-isopropylacetamido)cyclohexyl)acetamide] | 8 | 170 | 1000 | 2400 | 26 | 790 |

The next compounds have a lower IC50 [1] than those just listed; values first:

| IC50 [1] [nM] | IC50 [2] [nM] | IC50 [3] [nM] | IC50 [4] [nM] | IC50 [5] [nM] | IC50 [6] [nM] | Structure (SMILES) |
| --- | --- | --- | --- | --- | --- | --- |
| 5 | 160 | 900 | 7000 | 13 | 3800 | CCC(=O)N(C)[C@H]1CC[C@H](CC(=O)Nc2cc(-c3ccsc3)c(-c3ccc([C@]4(N)C[C@](C)(O)C4)cc3)nn2)CC1 [Example 91, N-(trans-4-(2-((6-(4-(trans-1-amino-3-hydroxy-3-methylcyclobutyl)phenyl)-5-(thiophen-3-yl)pyridazin-3-yl)amino)-2-oxoethyl)cyclohexyl)-N-methylpropionamide] |
| 5 | 48 | 600 | 2900 | 6 | 880 | CCOC(=O)N(C)[C@H]1CC[C@H](CC(=O)Nc2cnc(-c3ccc([C@]4(N)C[C@](C)(O)C4)cc3)c(-c3ccccc3)c2)CC1 [Example 97, Ethyl (4-(2-((6-(4-(trans-1-amino-3-hydroxy-3-methylcyclobutyl)phenyl)-5-phenylpyridin-3-yl)amino)-2-oxoethyl)cyclohexyl)(methyl)carbamate] |
| 5 | 53 | 470 | 3500 | 7 | 880 | CCC(=O)N(C)[C@H]1CC[C@H](CC(=O)Nc2cnc(-c3ccc([C@]4(N)C[C@](C)(O)C4)cc3)c(-c3ccccc3)c2)CC1 [Example 98, N-(4-(2-((6-(4-(trans-1-amino-3-hydroxy-3-methylcyclobutyl)phenyl)-5-phenylpyridin-3-yl)amino)-2-oxoethyl)cyclohexyl)-N-methylpropionamide] |
| 6 | 44 | 390 | 2400 | 12 | 670 | CC(C)C(=O)N(C)[C@H]1CC[C@H](CC(=O)Nc2cnc(-c3ccc([C@]4(N)C[C@](C)(O)C4)cc3)c(-c3ccccc3)c2)CC1 [Example 99, N-(4-(2-((6-(4-(trans-1-amino-3-hydroxy-3-methylcyclobutyl)phenyl)-5-phenylpyridin-3-yl)amino)-2-oxoethyl)cyclohexyl)-N-methylisobutyramide] |
